# Measured values from US9987296B2, “Compositions including anthocyanin or anthocyanidin for the prevention or treatment of Articular cartilage-associated conditions” (priority 2008, dated 2018).
# “Also recorded” adds a separate entry of the source.
# Assays:
# Format in all cases: cell-based
# [1] = test system: human osteoarthritic cartilage explants; assay: Matrix synthesis (35S uptake) in human osteoarthritic cartilage explants
# Protocol: Bovine cartilage explants (full thickness, 6 mm in diameter) were harvested from fresh femoral condyles. Human osteochondral plugs were harvested using 6 mm osteochondral grafting donor tool (Arthrez 1981-06S, Naples, Fla.) from femoral condyles retrieved from total knee arthroplasty surgery that had been stored in DMEM at 20 degrees C. for less than 24 hours. Full-thickness cartilage explants were cut from the subchondral bone. Each of the 6 mm cartilage disks were divided into 4 equal quadrants. Each quadrant was placed in a different experimental group. This allowed for a paired comparison and controlled for differences in grade of arthritis, thickness of cartilage, cell density, etc. The explants were washed 4-5 times with DMEM with 10% calf serum and were allowed to stabilize for 24 hours in a tissue culture incubator. Explants were then serum starved (0.1% calf serum) for 24 hours prior to commencement of cyanidin chloride treatment.
# 3 mL fresh media with 20 uCi/mL of ^35S-labeled sodium sulfate (NEX0414 Perkin Elmer, Boston, Mass.) (DMEM with 10% CS) was added to each of the explants along with 30 uL of 50 mM stock cyanidin chloride (MW 322.7 g/mole) solution (diluted in DMSO) (Chromadex Inc., Irvine, Calif.) to give the final cyanidin chloride concentration of (200 or 500 uM) in culture. Explants were subjected to cyanidin chloride treatment for 48 hours.
# Radioactive media was aspirated after 48 hours and explants were washed in ice-cold 1×PBS for 10 minutes×3. Each cartilage explant quadrant was blotted dry and was placed in 500 uL of 2 mg/mL Proteinase K (Fisher Scientific, Fair Lawn, N.J.) in TE Buffer solution (10 mM Tris, 1 mM EDTA) and was allowed to rotate at 57 degrees C. for 24 hours in a hybridization oven until completely dissolved. Quantification of ^35S-labeled proteoglycans complexed to alcian blue by rapid filtration in multiwall plates was adopted and modified from Masuda et al Anal. Biochem 1994; 217:167-75. 75 uL of dilution buffer (50 mM Sodium Acetate pH^− 5.8. 0.5% Triton X-100) was added to each well of a 96 well plate (Millipore Multiscreen 96-well filtration system, Millipore, Billerica, Mass.) 25 uL of each digested cartilage explant sample was then loaded followed by 150 uL of 0.2% alcian blue solution (Alcian Blue 8GX electrophoresis grade, Sigma-Aldrich Inc., St. Louis Mo.) and was allowed to rotate for 1 hour at room temperature. The 96-well plate was then placed over a vacuum-manifold to aspirate the contents of the wells through the screen. The 3×200 uL vacuum washes with wash buffer (50 mM sodium acetate pI-I 5.8, 100 mM sodium sulfate, 50 mM MgCl2) were then performed. The 96-well filtration plate was then completely dried at 57 degrees C. for 5 minutes in a hybridization oven and was exposed to storage phosphor screen for 24 hours (Packard Instrument Company Inc., Meriden. Conn.). Phosphorimaging with Cyclone model A431200 (Packard Instrument Company Inc. Meriden, Conn.) was performed to quantify ^35S uptake by proteoglycans. ^35S uptake by proteoglycans in cartilage explants was normalized to DNA by Quant-iT ds DNA Assay Kit (Invitrogen Inc., Carlsbad Calif.).
# Reported clinical experiments indicate that 10% dextrose injected in the joint can have a therapeutic effect on osteoarthritis. To test this effect, human osteoarthritic cartilage explants (Grade II) were treated with glucose at physiologic (0.45%) or were treated with supraphysiologic (2.5% and 5%) concentrations with 500 uM cyanidin chloride.
# IGF-1 = assay: Real time RT-PCR for IGF-1 in human chondrocytes; conditions: for IGF-1 gene expression compared to IL-1 alone: 5 or 50 ug/mL with IL-1, 50 ug/mL alone (FIGS. 3, 4)
# Protocol: Chondrocytes were prepared by the enzymatic digestion of knee cartilage, as previously described. (Ahmed S et al., J Nutr 2005 135:20962102). Chondrocytes were plated (1×10^6 cells/mL) in 35 mm culture dishes (BD, Mountain View, Calif.) and cultured in DMEM:F12 (Mediatech, Herndon, Va.) supplemented with 10% FCS and 1% Penn:Strep for 72 hrs at 37° C. and 5% CO2 in a tissue culture incubator. Chondrocytes were serum starved overnight and then exposed to either kuromanin or cyanidin chloride (5 or 50 ug/mL), progrado (2 or 10 ug/mL) alone or in combination in fresh serum-free medium for 1 hr prior to the addition of IL-β.
# Total cytoplasmic RNA was prepared from primary cultures of human chondrocytes using a commercially available kit according to the instructions of the manufacturer (Qiagen, Valencia, Calif.). Real time quantitative RT-PCR with internal fluorescent hybridization probes was performed as previously described (Ahmed S et al., ECAM 2005 2:301-8) and the IGF-1 gene expression was quantified using a commercially available Gene Expression Assay kit (Applied Biosystems, CA). Expression of IGF-1 mRNA was normalized to […] mRNA expression. and the results were expressed as fold induction relative to controls.
# human cartilage explants = assay: Cartilage breakdown as determined by GAG release in human cartilage explants; conditions: for GAG release under basal conditions: high dose (50 ug/mL) alone, no IL-1; for IL-1 induced GAG release (chondroprotection): human cartilage explants, IL-1 plus test agent 5 or 50 ug/mL, 72 hours
# Excerpt: Human osteoarthritic cartilage samples were procured through the Tissue Procurement Facility of the University Hospitals of Cleveland/Case Western Reserve University and with prior approval of the IRB of University Hospitals of Cleveland. The cartilage samples were obtained from patients undergoing total anthroplasty of the knee due to degenerative joint diseases. In all cases care was taken to use only “macroscopically normal” cartilage samples. No samples were exposed to radiation solely for the purpose of these studies but almost all patients will have received X-rays as part of their clinical presentation during the execution of care. The same donor tissue was not used in all experiments but untreated controls were included in all protocols.
# Full thickness cartilage slices (20-25 mg) were dissected from the cartilage using a sterile scalpel blade. Four to five cartilage pieces that were approximately equal in size and weight were transferred to each well of a 24-well, flat bottom plate (Nuns, Denmark) containing DMEM:F12 (1:1) supplemented with antibiotics and 10% FCS and cultured for 24 hours. Subsequently the cartilage explants were cultured overnight in serum free media. The cartilage explants were treated with IL-β alone or with IL-β positive test agents for 72 hours in serum free media. Explants cultured in the absence of IL-β or test agents were used as controls. Additionally, the actions of kuromanin or cyanidin chloride were examined independently of IL-β exposure (5 ng/mL). Where appropriate, explants were exposed to test agents 15 minutes prior to the treatment with IL-β. Total glycosaminoglycan present in the culture supernatant was estimated as described below.
# At the end of culture period, the culture medium was collected from each group. A 50 uL aliquot of collected supernatant from each sample was utilized to estimate the total glycosaminoglycan (GAG) concentration by a colorimetric method employing a DMMB as previously described (Miller M J S et al., BMC Complementary and Alternative Med 2006 6; 13). Color intensity was read spectrophotometrically at 535 nm using the Lambda 25 spectrophotometer (Perkin-Elmer, CT) and the values were derived from a standard curve prepared using different concentrations of chondroitin sulfate. Results are expressed as micrograms of glycosaminoglycan released per mg of cartilage tissue.
SMILES,"matrix synthesis (35S uptake) ([1]; glucose 0.45% (low, physiologic))",matrix synthesis (35S uptake) ([1]; supraphysiologic glucose (2.5% and 5%)),"IGF-1 gene expression (IGF-1; 50 ug/mL dose, duplicate, called anomalous)",IGF-1 gene expression compared to IL-1 alone (IGF-1),GAG release under basal conditions (human cartilage explants),IL-1 induced GAG release (chondroprotection) (human cartilage explants; listed as CC1),IL-1 induced GAG release (chondroprotection) (human cartilage explants; listed as cyanidin),IL-1 induced GAG release (chondroprotection) (human cartilage explants; listed as cyanidin chloride),synergy of cyanidin and glucose on matrix synthesis ([1]; cyanidin 500 uM combined with glucose),"matrix synthesis (35S uptake) ([1]; human OA Grade II explants, 500 uM at 0.45% glucose)","matrix synthesis (35S uptake) ([1]; human OA grade II-III explants, 500 uM)",IGF-1 gene expression (IGF-1; IL-1 with compound at 5 or 50 ug/mL),IL-1 induced GAG release (chondroprotection) (human cartilage explants),IL-1 induced GAG release (chondroprotection) (human cartilage explants; listed as KuCl)
O=C[C@H](O)[C@@H](O)[C@H](O)[C@H](O)CO [glucose],stimulate matrix synthesis more than higher concentrations of glucose; also recorded: beneficial effect,reduced matrix synthesis; also recorded: suppressed matrix synthesis,,,,,,,,,,,,
Oc1cc(O)c2cc(O)c(-c3ccc(O)c(O)c3)[o+]c2c1 [Cyanidin chloride],,,elevated above control,increased IGF-1 gene expression more than kuromanin; also recorded: greater compared to IL-1 alone when treated with cyanidin alone or in combination with IL-1,not evident,blocked IL-1 induced GAG release,able to prevent GAG (glycosaminoglycan) release compared to control; also recorded: effective chondroprotective agents limiting the degradation of human cartilage against the catabolic effects of IL-1,chondroprotective; also recorded: blocked,did not have significant synergistic effect,no effect on matrix synthesis,no effect on human OA explants; also recorded: did not increase matrix synthesis in human OA tissue,,,
OC[C@H]1O[C@@H](Oc2cc3c(O)cc(O)cc3[o+]c2-c2ccc(O)c(O)c2)[C@H](O)[C@@H](O)[C@@H]1O.[Cl-] [Kuromanin chloride],,,,greater compared to IL-1 alone when treated with kuromanin at high dose,some catabolic effects that may reflect cell toxicity; also recorded: tendency for the high dose of kuromanin to promote GAG release,,,,,,,no further changing in this pattern,able to prevent GAG (glycosaminoglycan) release compared to control; also recorded: effective chondroprotective agents limiting the degradation of human cartilage against the catabolic effects of IL-1; also recorded: blocked,blocked IL-1 induced GAG release
